“Also recorded” adds a separate entry of the source. Counter-ions that a name gives are not always drawn.
Legend:
[1] = In vitro binding assay: free test drug recovered after 3 h incubation with and without patiromer in SGF, acetate buffer or SIF; conditions: for SGF / SIF / AB: QSPR input data; for SGF: test matrix SGF; for SIF: test matrix SIF; for AB: test matrix acetate buffer (AB); for In Vitro Binding (% Drug Recovered) Acetate Buffer (pH 4.5) / In Vitro Binding (% Drug Recovered) SGF (pH 3) / In Vitro Binding (% Drug Recovered) SIF (pH 5.9): patiromer 25.2 g/L, 3 h, 37°C, geometric mean of 12 replicates; for In Vitro Binding (% Drug Recovered) SGF (pH 3): simulated gastric fluid, final pH 3.0; for In Vitro Binding (% Drug Recovered) SIF (pH 5.9): simulated intestinal fluid, final pH 5.9; for In vitro patiromer binding category: strong, weak or non-binding; for Binding categories (level of in vitro interaction with patiromer): across SGF, AB and SIF test matrices
[2] = pKa determination by titration in aqueous solution (UV or pH monitored); conditions: aqueous solution, average of three determinations
[3] = logD determination (liquid-liquid distribution chromatography, octanol-coated column); conditions: octanol-coated column with octanol-saturated mobile phase
[4] = logP determination by titration in octanol/water; conditions: octanol/water
[5] = test drug given together with patiromer, healthy volunteers; a drug listed in the table cell = AUC reduced; cited from earlier work
[6] = Dose-response in vitro patiromer binding across a range of test drug concentrations; conditions: across a clinically relevant dose range

| Compound | SGF [1] | SIF [1] | AB [1] | In Vitro Binding (% Drug Recovered) Acetate Buffer (pH 4.5) [1] | In Vitro Binding (% Drug Recovered) SGF (pH 3) [1] | In Vitro Binding (% Drug Recovered) SIF (pH 5.9) [1] | In vitro patiromer binding category [1] | pKa ([2]; pKa (B = base), basic group) | chromatographic logD ([3]; pH 3) | chromatographic logD ([3]; pH 4.5) | chromatographic logD ([3]; pH 5.9) | logP [4] | Binding categories (level of in vitro interaction with patiromer) [1] | Behaviour of drug in the presence of patiromer and its calcium counter-ion ([1]; in vitro binding assay conditions) | AUC reduced when co-administration (lower bound of the 90% CI <80%) [5] | pKa ([2]; pKa (A = acid), acidic group) | Concentration dependence of in vitro binding to patiromer [6] |
| --- | --- | --- | --- | --- | --- | --- | --- | --- | --- | --- | --- | --- | --- | --- | --- | --- | --- |
| C[C@@H](NCCCc1cccc(C(F)(F)F)c1)c1cccc2ccccc12 [Cinacalcet HCl] | 13.4 | 18.3 | 19.3 | 19.3% | 13.4% | 18.3% | Strong patiromer binding | 8.85 | 2.41 | 2.44 | 2.83 | 5.58 | – | – | – | – | – |
| COC(=O)[C@H](c1ccccc1Cl)N1CCc2sccc2C1 [Clopidogrel bisulfate] | 66 | – | – | – | 66% | – | Weak binders | 4.66 | 2.4 | 3.67 | 4.03 | 4.06 | Weak binder (30–55% bound in one test matrix) | – | – | – | – |
| NCCCC[C@H](N[C@@H](CCc1ccccc1)C(=O)O)C(=O)N1CCC[C@H]1C(=O)O [Lisinopril] | 77.9 | 98.5 | 100.7 | 100.7% | 77.9% | 98.5% | – | 7.13 | -0.85 | -0.52 | -0.54 | -0.51 | No binding (<30% drug bound in any test matrix) | – | – | 1.63 | – |
| CN(C)C(=N)N=C(N)N [Metformin HCl] | 48.9 | 80.2 | 81.8 | 81.8% | 48.9% | 80.2% | weak binder | – | – | – | – | – | Weak binder (30–55% bound in one test matrix) | – | moderate reduction in AUC; also recorded: Metformin, 1000 mg | – | – |

Further lines, with some results ahead:

| SGF [1] | SIF [1] | AB [1] | In Vitro Binding (% Drug Recovered) Acetate Buffer (pH 4.5) [1] | In Vitro Binding (% Drug Recovered) SGF (pH 3) [1] | In Vitro Binding (% Drug Recovered) SIF (pH 5.9) [1] | In vitro patiromer binding category [1] | pKa ([2]; pKa (B = base), basic group) | chromatographic logD ([3]; pH 3) | chromatographic logD ([3]; pH 4.5) | chromatographic logD ([3]; pH 5.9) | logP [4] | Compound | Binding categories (level of in vitro interaction with patiromer) [1] | Behaviour of drug in the presence of patiromer and its calcium counter-ion ([1]; in vitro binding assay conditions) | AUC reduced when co-administration (lower bound of the 90% CI <80%) [5] | pKa ([2]; pKa (A = acid), acidic group) | Concentration dependence of in vitro binding to patiromer [6] |
| --- | --- | --- | --- | --- | --- | --- | --- | --- | --- | --- | --- | --- | --- | --- | --- | --- | --- |
| – | – | – | – | – | – | – | 8.73 | 3.44 | 3.44 | 3.37 | 3.44 | N[C@@H](Cc1cc(I)c(Oc2cc(I)c(O)c(I)c2)c(I)c1)C(=O)O [Levothyroxine sodium] | – | precipitated in the presence of patiromer and its calcium counter-ion | Ciprofloxacin, 500 mg Levothyroxine, 0.6 mg | – | – |
| 83.4 | 92.8 | 90.2 | 90.2% | 83.4% | 92.8% | – | – | 2.43 | 2.43 | 2.43 | 2.43 | O=C1NC(=O)C(c2ccccc2)(c2ccccc2)N1 [Phenytoin sodium] | No binding (<30% drug bound in any test matrix) | – | – | 8.18 | – |
| 12.6 | 24.3 | – | – | 12.6% | 24.3% | strong binders | – | – | – | – | – | C=C[C@H]1C[N@@]2CC[C@H]1C[C@@H]2[C@@H](O)c1ccnc2ccc(OC)cc12 [Quinidine] | – | – | – | – | did not show strong concentration dependence |
| – | – | – | 50.7% | 28.8% | 42.9% | – | 4.88 | < -1.5 | < -1.5 | < -1.5 | < -1.5 | Cc1ncc(C[n+]2csc(CCO)c2C)c(N)n1 [Thiamin] | – | – | – | – | – |
| 36.3 | 28.4 | 55.3 | 55.3% | 36.3% | 28.4% | strong binders | – | – | – | – | – | COc1cc(Cc2cnc(N)nc2N)cc(OC)c1OC [Trimethoprim] | – | – | – | – | did not show strong concentration dependence |

— PMC5843698, “Use of QSPR Modeling to Characterize In Vitro Binding of Drugs to a Gut-Restricted Polymer” (Pharmaceutical Research, 2018)
